Results: paper PMC5511029 (Journal of molecular biology, 2017)

Target: E. coli cysteinyl-tRNA synthetase (EcCysRS) (Escherichia coli, UniProt P21888)
Assay: aminoacylation of E. coli tRNA-Cys with […]-Cys by purified CysRS
Assay type: biochemical

Sequence of E. coli cysteinyl-tRNA synthetase (EcCysRS) (P21888 whole entry): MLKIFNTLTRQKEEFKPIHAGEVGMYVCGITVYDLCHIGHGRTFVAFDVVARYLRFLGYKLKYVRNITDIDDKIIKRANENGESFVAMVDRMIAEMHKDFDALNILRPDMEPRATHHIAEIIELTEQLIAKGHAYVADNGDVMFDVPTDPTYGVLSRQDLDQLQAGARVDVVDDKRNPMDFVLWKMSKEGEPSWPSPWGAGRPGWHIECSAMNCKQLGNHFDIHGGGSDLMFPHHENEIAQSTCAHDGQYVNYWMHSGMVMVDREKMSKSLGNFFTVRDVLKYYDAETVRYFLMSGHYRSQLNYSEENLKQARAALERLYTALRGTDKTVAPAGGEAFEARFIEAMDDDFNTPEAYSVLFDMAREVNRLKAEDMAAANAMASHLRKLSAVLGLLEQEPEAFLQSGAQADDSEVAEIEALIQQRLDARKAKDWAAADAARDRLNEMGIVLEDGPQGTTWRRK

## Nc1ncnc2c1ncn2[C@@H]1O[C@H](COS(=O)(=O)NC(=O)[C@@H](N)CS)[C@@H](O)[C@H]1O [Cys-AMS]
  IC50: < 600 nM
